Data published in ChEMBL document CHEMBL3612054 (Bioorg Med Chem, 2015).
≈ marks a conversion by molar mass, not a printed value.

Tests used:
[1] = tested on: MDCK; assay: Permeability from apical to basolateral side in MDCK cells expressing human MDR1 at 10 uM after 1 hr by chromatography analysis; type: ADME, cell-based, Canis lupus familiaris; conditions: dog
[2] = Solubility of the compound in 10 mM phosphate buffer at pH 7.4 after 90 mins by LC/MS analysis; type: physicochemical
[3] = Solubility of the compound in 10 mM phosphate buffer at pH 3 after 90 mins by LC/MS analysis; type: physicochemical
[4] = Metabolic stability of the compound in plasma (unknown origin) assessed as compound remaining at 10 uM after 60 mins; type: ADME, cell-free; conditions: read-out: Stability
[5] = Metabolic stability of the compound in hepatic S9 fraction (unknown origin) assessed as compound remaining at 10 uM after 60 mins; type: ADME, tissue-based, Liver; conditions: read-out: Stability
[6] = Permeability of the compound at pH 7.4 at 10 uM by PAMPA; type: physicochemical; conditions: pH 7.4, 10 µM
[7] = Permeability of the compound at pH 5.5 at 10 uM by PAMPA; type: physicochemical; conditions: pH 5.5, 10 µM
[8] = biological target: T1, Voltage-gated inwardly rectifying potassium channel KCNH2 (Homo sapiens, UniProt Q12809)
Description: (§1) Displacement of [3H]-astemizole from human ERG

[9] = biological target: T1, Voltage-gated inwardly rectifying potassium channel KCNH2; remark: listed apart in the source
Description: as §1

[10] = biological target: Delta-type opioid receptor (Homo sapiens) (UniProt P41143)
Delta-type opioid receptor (Homo sapiens), sequence (P41143 whole entry): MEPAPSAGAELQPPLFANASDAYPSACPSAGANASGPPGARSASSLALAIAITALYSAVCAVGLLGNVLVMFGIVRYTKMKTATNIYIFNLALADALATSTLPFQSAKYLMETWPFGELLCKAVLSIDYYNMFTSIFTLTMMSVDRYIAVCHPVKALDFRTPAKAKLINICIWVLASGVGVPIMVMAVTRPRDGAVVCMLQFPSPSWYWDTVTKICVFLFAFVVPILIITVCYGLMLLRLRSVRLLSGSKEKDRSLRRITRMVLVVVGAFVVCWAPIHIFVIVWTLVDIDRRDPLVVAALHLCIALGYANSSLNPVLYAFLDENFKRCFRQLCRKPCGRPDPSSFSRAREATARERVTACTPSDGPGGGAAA
Description: Antagonist activity at cloned human delta opioid receptor assessed as inhibition of DPDPE-induced [35S]GTPgammaS binding

T1 sequence (Q12809 whole entry): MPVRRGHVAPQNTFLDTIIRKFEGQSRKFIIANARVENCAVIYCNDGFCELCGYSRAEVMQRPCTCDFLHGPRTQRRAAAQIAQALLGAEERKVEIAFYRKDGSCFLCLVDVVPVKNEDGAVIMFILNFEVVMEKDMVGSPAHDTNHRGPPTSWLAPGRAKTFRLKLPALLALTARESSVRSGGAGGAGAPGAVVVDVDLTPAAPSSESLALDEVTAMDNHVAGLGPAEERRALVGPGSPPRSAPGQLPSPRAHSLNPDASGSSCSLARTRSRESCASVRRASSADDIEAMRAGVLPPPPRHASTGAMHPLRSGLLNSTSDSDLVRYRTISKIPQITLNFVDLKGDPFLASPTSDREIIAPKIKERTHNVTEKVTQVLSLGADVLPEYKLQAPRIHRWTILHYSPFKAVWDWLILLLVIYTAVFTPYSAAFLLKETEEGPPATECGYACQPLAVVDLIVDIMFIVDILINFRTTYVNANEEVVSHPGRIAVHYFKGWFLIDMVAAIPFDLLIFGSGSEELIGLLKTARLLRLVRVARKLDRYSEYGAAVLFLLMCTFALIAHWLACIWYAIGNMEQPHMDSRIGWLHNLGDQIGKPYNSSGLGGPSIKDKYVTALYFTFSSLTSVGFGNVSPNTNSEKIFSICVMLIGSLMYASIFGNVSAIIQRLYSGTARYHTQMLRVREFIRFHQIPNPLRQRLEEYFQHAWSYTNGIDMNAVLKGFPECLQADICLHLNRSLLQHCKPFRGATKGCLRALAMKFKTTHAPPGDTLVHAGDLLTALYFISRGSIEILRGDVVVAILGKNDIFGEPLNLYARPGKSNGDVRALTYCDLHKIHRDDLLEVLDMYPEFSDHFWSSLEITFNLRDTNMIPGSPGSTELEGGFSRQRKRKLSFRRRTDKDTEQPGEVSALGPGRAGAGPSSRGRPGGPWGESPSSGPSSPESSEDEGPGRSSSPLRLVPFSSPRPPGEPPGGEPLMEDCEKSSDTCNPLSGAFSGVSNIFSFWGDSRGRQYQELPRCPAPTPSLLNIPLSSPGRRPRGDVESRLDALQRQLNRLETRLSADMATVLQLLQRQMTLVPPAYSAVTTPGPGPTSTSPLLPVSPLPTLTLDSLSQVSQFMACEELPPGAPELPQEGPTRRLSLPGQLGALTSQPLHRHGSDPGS

| Compound | permeability [1] | solubility [2] | solubility [3] | remaining at 1 h, 10 µM [4] | remaining at 1 h, 10 µM [5] | permeability [6] | permeability [7] | Ki [8] | Ki [9] | Ke [10] |
| --- | --- | --- | --- | --- | --- | --- | --- | --- | --- | --- |
| CC(C)[C@@H](CN1CC[C@@](C)(c2ccccc2)[C@@H](C)C1)NC(=O)[C@H]1Cc2ccc(O)cc2CN1 | 27% | 11 µM (≈ 4.95 µg/mL) | 42 µM (≈ 18.9 µg/mL) | 67% | 82% | 91.4% | 67.3% | 7.05 µM |  |  |
| CC(C)[C@@H](CN1CC[C@@](C)(c2cccc(O)c2)[C@@H](C)C1)NC(=O)[C@H]1Cc2ccc(O)cc2CN1 [JDTIC] | 11% | 11 µM (≈ 5.12 µg/mL) | 34 µM (≈ 15.8 µg/mL) | 97% | 76% |  | 57.9% | 8.82 µM |  |  |
| CC(C)[C@@H](CN1CCC(C)(c2cccc(F)c2)CC1)NC(=O)[C@H]1Cc2ccc(O)cc2CN1 | 1.3% |  |  |  |  |  |  |  | 4.24 µM |  |
| CC(C)[C@@H](CN1CCC(c2cccc(F)c2)CC1)NC(=O)[C@H]1Cc2ccc(O)cc2CN1 |  |  |  |  |  |  |  |  | 0.436 µM |  |
| CC(C)[C@@H](CN1CCC(c2ccccc2)CC1)NC(=O)[C@H]1Cc2ccc(O)cc2CN1 |  |  |  |  |  |  |  |  | 0.777 µM | 281 nM |
